Source: ChEMBL document CHEMBL1275589, “Molecular epidemiology, sequence types, and plasmid analyses of KPC-producing Klebsiella pneumoniae strains in Israel” (2010)

Tests used:
Klebsiella pneumoniae [1] = assay: Antimicrobial activity against carbapenem-resistant KPC-2 producing Klebsiella pneumoniae 588 ST 340 expressing beta-lactamase TEM-1 and SHV-11 by agar dilution method in presence of beta-lactamase inhibitor Tazobactam; format: functional
Klebsiella pneumoniae [2] = assay: Antimicrobial activity against carbapenem-resistant KPC-2 producing Klebsiella pneumoniae 523transformant by agar dilution method in presence of beta-lactamase inhibitor Tazobactam; format: functional
Escherichia coli [3] = assay: Antimicrobial activity against Escherichia coli Genehogs by agar dilution method in presence of beta-lactamase inhibitor Tazobactam; format: functional
Klebsiella pneumoniae [4] = assay: Antimicrobial activity against carbapenem-resistant KPC-2 producing Klebsiella pneumoniae 523 ST 340 expressing beta-lactamase TEM-1, SHV-11 and OXA-2 by agar dilution method in presence of beta-lactamase inhibitor Tazobactam; format: functional
Klebsiella pneumoniae [5] = assay: Antimicrobial activity against carbapenem-resistant KPC-2 producing Klebsiella pneumoniae 525 transformant by agar dilution method in presence of beta-lactamase inhibitor Tazobactam; format: functional
Klebsiella pneumoniae [6] = assay: Antimicrobial activity against carbapenem-resistant KPC-2 producing Klebsiella pneumoniae 469 ST 277 expressing beta-lactamase SHV-27, CTX-M-15 and OXA-4 by agar dilution method in presence of beta-lactamase inhibitor Tazobactam; format: functional
Klebsiella pneumoniae [7] = assay: Antimicrobial activity against carbapenem-resistant KPC-2 producing Klebsiella pneumoniae 525 ST 376 expressing beta-lactamase SHV-1 by agar dilution method in presence of beta-lactamase inhibitor Tazobactam; format: functional
Klebsiella pneumoniae [8] = assay: Antimicrobial activity against KPC-3 producing Klebsiella pneumoniae 557 ST 258 expressing beta-lactamase TEM-1 by agar dilution method in presence of beta-lactamase inhibitor Tazobactam
Klebsiella pneumoniae [9] = assay: Antimicrobial activity against carbapenem-resistant KPC-2 producing Klebsiella pneumoniae 531 transformant by agar dilution method in presence of beta-lactamase inhibitor Tazobactam; format: functional
Klebsiella pneumoniae [10] = assay: Antimicrobial activity against carbapenem-resistant KPC-2 producing Klebsiella pneumoniae 588 transformant by agar dilution method in presence of beta-lactamase inhibitor Tazobactam; format: functional
Klebsiella pneumoniae [11] = assay: Antimicrobial activity against carbapenem-resistant KPC-2 producing Klebsiella pneumoniae 469 transformant by agar dilution method in presence of beta-lactamase inhibitor Tazobactam; format: functional
Klebsiella pneumoniae [12] = assay: Antimicrobial activity against carbapenem-resistant KPC-2 producing Klebsiella pneumoniae 526 ST 376 expressing beta-lactamase SHV-1 by agar dilution method in presence of beta-lactamase inhibitor Tazobactam; format: functional
Klebsiella pneumoniae [13] = assay: Antimicrobial activity against KPC-3 producing Klebsiella pneumoniae 549 ST 327 expressing beta-lactamase TEM-1 and CTX-M-2 by agar dilution method in presence of beta-lactamase inhibitor Tazobactam; format: functional
Klebsiella pneumoniae [14] = assay: Antimicrobial activity against carbapenem-resistant KPC-2 producing Klebsiella pneumoniae 365 transformant by agar dilution method in presence of beta-lactamase inhibitor Tazobactam; format: functional
Klebsiella pneumoniae [15] = assay: Antimicrobial activity against carbapenem-resistant KPC-2 producing Klebsiella pneumoniae 526 transformant by agar dilution method in presence of beta-lactamase inhibitor Tazobactam; format: functional
Klebsiella pneumoniae [16] = assay: Antimicrobial activity against carbapenem-resistant KPC-2 producing Klebsiella pneumoniae 475transformant by agar dilution method in presence of beta-lactamase inhibitor Tazobactam; format: functional
Klebsiella pneumoniae [17] = assay: Antimicrobial activity against carbapenem-resistant KPC-2 producing Klebsiella pneumoniae 365 ST 376 expressing beta-lactamase SHV-1, CTX-M-15 and OXA-4 by agar dilution method in presence of beta-lactamase inhibitor Tazobactam
Klebsiella pneumoniae [18] = assay: Antimicrobial activity against KPC-3 producing Klebsiella pneumoniae 549 transformant by agar dilution method in presence of beta-lactamase inhibitor Tazobactam; format: functional
Klebsiella pneumoniae [19] = assay: Antimicrobial activity against carbapenem-resistant KPC-2 producing Klebsiella pneumoniae 531 ST 376 expressing beta-lactamase SHV-1 by agar dilution method in presence of beta-lactamase inhibitor Tazobactam; format: functional
Klebsiella pneumoniae [20] = assay: Antimicrobial activity against KPC-3 producing Klebsiella pneumoniae 557 transformant by agar dilution method in presence of beta-lactamase inhibitor Tazobactam; format: functional
Klebsiella pneumoniae [21] = assay: Antimicrobial activity against carbapenem-resistant KPC-2 producing Klebsiella pneumoniae 475 ST 277 expressing beta-lactamase SHV-27, CTX-M-15 and OXA-4 by agar dilution method in presence of beta-lactamase inhibitor Tazobactam; format: functional
Klebsiella pneumoniae [22] = assay: Antimicrobial activity against carbapenem-resistant KPC-2 producing Klebsiella pneumoniae 525 transformant by Etest; format: functional
Klebsiella pneumoniae [23] = assay: Antimicrobial activity against carbapenem-resistant KPC-2 producing Klebsiella pneumoniae 523 ST 340 expressing beta-lactamase TEM-1, SHV-11 and OXA-2 by Etest; format: functional
Klebsiella pneumoniae [24] = assay: Antimicrobial activity against carbapenem-resistant KPC-2 producing Klebsiella pneumoniae 475 ST 277 expressing beta-lactamase SHV-27, CTX-M-15 and OXA-4 by Etest; format: functional
Klebsiella pneumoniae [25] = assay: Antimicrobial activity against carbapenem-resistant KPC-2 producing Klebsiella pneumoniae 365 ST 376 expressing beta-lactamase SHV-1, CTX-M-15 and OXA-4 by Etest
Klebsiella pneumoniae [26] = assay: Antimicrobial activity against carbapenem-resistant KPC-2 producing Klebsiella pneumoniae 525 ST 376 expressing beta-lactamase SHV-1 by Etest; format: functional
Klebsiella pneumoniae [27] = assay: Antimicrobial activity against carbapenem-resistant KPC-2 producing Klebsiella pneumoniae 526 ST 376 expressing beta-lactamase SHV-1 by Etest; format: functional
Klebsiella pneumoniae [28] = assay: Antimicrobial activity against carbapenem-resistant KPC-2 producing Klebsiella pneumoniae 469 transformant by Etest; format: functional
Klebsiella pneumoniae [29] = assay: Antimicrobial activity against carbapenem-resistant KPC-2 producing Klebsiella pneumoniae 523 transformant by Etest; format: functional
Klebsiella pneumoniae [30] = assay: Antimicrobial activity against carbapenem-resistant KPC-2 producing Klebsiella pneumoniae 475 transformant by Etest; format: functional
Klebsiella pneumoniae [31] = assay: Antimicrobial activity against KPC-3 producing Klebsiella pneumoniae 557 transformant by Etest; format: functional
Klebsiella pneumoniae [32] = assay: Antimicrobial activity against carbapenem-resistant KPC-2 producing Klebsiella pneumoniae 526 transformant by Etest; format: functional
Klebsiella pneumoniae [33] = assay: Antimicrobial activity against carbapenem-resistant KPC-2 producing Klebsiella pneumoniae 531 transformant by Etest; format: functional
Klebsiella pneumoniae [34] = assay: Antimicrobial activity against carbapenem-resistant KPC-2 producing Klebsiella pneumoniae 588 transformant by Etest; format: functional
Klebsiella pneumoniae [35] = assay: Antimicrobial activity against carbapenem-resistant KPC-2 producing Klebsiella pneumoniae 365 transformant by Etest; format: functional
Escherichia coli [36] = assay: Antimicrobial activity against Escherichia coli Genehogs by Etest; format: functional
Klebsiella pneumoniae [37] = assay: Antimicrobial activity against KPC-3 producing Klebsiella pneumoniae 549 transformant by Etest; format: functional
Klebsiella pneumoniae [38] = assay: Antimicrobial activity against KPC-3 producing Klebsiella pneumoniae 549 ST 327 expressing beta-lactamase TEM-1 and CTX-M-2 by Etest; format: functional
Klebsiella pneumoniae [39] = assay: Antimicrobial activity against carbapenem-resistant KPC-2 producing Klebsiella pneumoniae 531 ST 376 expressing beta-lactamase SHV-1 by Etest; format: functional
Klebsiella pneumoniae [40] = assay: Antimicrobial activity against carbapenem-resistant KPC-2 producing Klebsiella pneumoniae 588 ST 340 expressing beta-lactamase TEM-1 and SHV-11 by Etest; format: functional
Klebsiella pneumoniae [41] = assay: Antimicrobial activity against KPC-3 producing Klebsiella pneumoniae 557 ST 258 expressing beta-lactamase TEM-1 by Etest
Klebsiella pneumoniae [42] = assay: Antimicrobial activity against carbapenem-resistant KPC-2 producing Klebsiella pneumoniae 469 ST 277 expressing beta-lactamase SHV-27, CTX-M-15 and OXA-4 by Etest; format: functional

Measured: MIC

CCN1CCN(C(=O)N[C@@H](C(=O)N[C@@H]2C(=O)N3[C@@H]2SC(C)(C)[C@@H]3C(=O)O)c2ccccc2)C(=O)C1=O [PIPERACILLIN]
< 4 µg/mL: Escherichia coli [3]
64 µg/mL: Klebsiella pneumoniae [5] | Klebsiella pneumoniae [9] | Klebsiella pneumoniae [18] | Klebsiella pneumoniae [20]
> 320 µg/mL: Klebsiella pneumoniae [8] | Klebsiella pneumoniae [13]
> 128 µg/mL: Klebsiella pneumoniae [1] | Klebsiella pneumoniae [2] | Klebsiella pneumoniae [6] | Klebsiella pneumoniae [7] | Klebsiella pneumoniae [10] | Klebsiella pneumoniae [11] | Klebsiella pneumoniae [12] | Klebsiella pneumoniae [14] | Klebsiella pneumoniae [15] | Klebsiella pneumoniae [16] | Klebsiella pneumoniae [17] | Klebsiella pneumoniae [19] | Klebsiella pneumoniae [21]
128 µg/mL: Klebsiella pneumoniae [4]

CN(C)c1cc(NC(=O)CNC(C)(C)C)c(O)c2c1C[C@H]1C[C@H]3[C@H](N(C)C)C(O)=C(C(N)=O)C(=O)[C@@]3(O)C(O)=C1C2=O [TIGECYCLINE]
0.5 µg/mL: Klebsiella pneumoniae [23]
1.5 µg/mL: Klebsiella pneumoniae [27] | Klebsiella pneumoniae [39]
4 µg/mL: Klebsiella pneumoniae [24] | Klebsiella pneumoniae [41]
0.094 µg/mL: Escherichia coli [36]
2 µg/mL: Klebsiella pneumoniae [40]
1 µg/mL: Klebsiella pneumoniae [25] | Klebsiella pneumoniae [26] | Klebsiella pneumoniae [42]
0.125 µg/mL: Klebsiella pneumoniae [22] | Klebsiella pneumoniae [28] | Klebsiella pneumoniae [29] | Klebsiella pneumoniae [30] | Klebsiella pneumoniae [31] | Klebsiella pneumoniae [32] | Klebsiella pneumoniae [33] | Klebsiella pneumoniae [34] | Klebsiella pneumoniae [35]
0.19 µg/mL: Klebsiella pneumoniae [37]
0.75 µg/mL: Klebsiella pneumoniae [38]
